The values below are quoted from earlier work in US10098922B1, “Increasing telomere length in a cell” (priority 2017, dated 2018).

For data set [1], the system named is doxorubicin-induced leukopenia. To be noted: rats, oral by gavage.
In the next data set the test system is rats. To be noted: AC-11 80 mg/kg plus doxorubicin vs doxorubicin only.

As for `O=C(O)[C@]1(O)C[C@@H](O)[C@@H](O)[C@H](O)C1` [QA, quinic acid], the “Reversal of doxorubicin-induced leukopenia” value in data set [1] is given as “about as effective as C-MED-100®”.

Turning to `N.O=C(O)C1(O)CC(O)C(O)C(O)C1` (stereo not drawn) [QAA], the “Reversal of doxorubicin-induced leukopenia” value in data set [1] is “about as effective as C-MED-100®”.

Take `COc1cccc2c1C(=O)c1c(O)c3c(c(O)c1C2=O)C[C@@](O)(C(=O)CO)C[C@@H]3O[C@H]1C[C@H](N)[C@H](O)[C@H](C)O1` [doxorubicin]: the “Mean heart weight coefficient” value in the data set with rats is 0.369%±0.022.
